Common to all, as to type: physicochemical
A short description of data set [1]: Physical stability of salt forms (appearance upon storage in open vial). The note with it: 30° C. and 60% relative humidity, listed as naphthalene-1,5-disulfonic acid salt. The method, then: The physical stability of certain salt forms was evaluated by determining any changes in appearance of the sample upon storage of the salt form at 30° C. and 60% relative humidity.
To an open vial was added 50-100 mg of each salt form. The open vials were placed in a stability chamber that was previously set at 30° C. and 60% relative humidity. At periodic intervals, the appearance of each salt form was compared to its starting appearance and any differences were recorded.

A short description of data set [2]: Chemical stability of salt forms (change in purity by HPLC upon storage). The note with it: 40° C. and 75% relative humidity, 7 days; for % Change in Impurity A / % Change in Impurity B / % Change in Purity of Salt: HPLC Method D; for % Change in Purity of Salt: heat sealed polyethylene bags. The method, then: The chemical stability of each salt form was evaluated by determining the change in purity of the sample upon storage of the salt form at 40° C.
Prior to storage, each salt form was analyzed by HPLC (Method D) to determine sample purity and in particular, to determine the amount of the following impurities present in the sample: • A. 3-[4-{N-[7-(3-(S)-1-Carbamoyl-1,1-diphenylmethyl)pyrrolidin-1-yl)hept-1-yl]-N-(isopropyl)amino}piperidin-1-ylmethyl]-4-methoxy-1-methylpyridinium Salt (Impurity A); • B. 4-{N-[7-(3-(S)-1-Carbamoyl-1,1-diphenylmethyl)pyrrolidin-1-yl)hept-1-yl]-N-(isopropyl)amino}-1-(4-oxo-1,4-dihydropyrid-3-ylmethyl)piperidine (Impurity B).
Approximately 50-100 mg of the salt form was then placed in two heat sealed low density polyethylene bags. The bags were then placed into a stability chamber that was previously set at 40° C. and 75% relative humidity. After 7 days, the bags were removed and the contents were analyzed by HPLC.

Data set [3] in a line: Physical stability of encapsulated pharmaceutical formulations (appearance upon storage). To be noted: both 25° C. and 60% relative humidity, and ambient temperature and relative humidity. The method, then: The physical stability of encapsulated pharmaceutical formulations containing certain salt forms was evaluated by determining any changes in appearance of the pharmaceutical formulation upon storage.
Capsules containing a 1:1 mixture (wt/wt) of the salt form and microcrystalline cellulose (Avecil) were stored under of the following conditions: • (1) Capsules were placed inside an open container within a stability chamber that was previously set to 25° C. and 60% relative humidity; or • (2) Capsules were placed inside an open container on the bench top alongside a thermometer and hygrometer.
At periodic intervals, the appearance of each formulation was compared to its starting appearance and any differences were recorded.

For the molecule `COc1ccncc1CN1CCC(N(CCCCCCCN2CC[C@@H](C(C(N)=O)(c3ccccc3)c3ccccc3)C2)C(C)C)CC1.O=S(=O)(O)c1cccc2c(S(=O)(=O)O)cccc12` [Example 7], the “Appearance Day 15” value in data set [1] was “remained a free flowing powder”. In data set [2], the “Chemical stability (summary in words of Table I)” value is given as “excellent chemical stability”, the “% Change in Impurity A” value is reported as less than 0.1%, the “% Change in Impurity B” value is listed as less than 0.1% and the “% Change in Purity of Salt” value amounted to 0.4%. In data set [3], the “Appearance of pharmaceutical formulation upon storage (summary in words of Table III)” value is “remained a free flowing powder”.
Consider `COc1ccncc1CN1CCC(N(CCCCCCCN2CC[C@@H](C(C(N)=O)(c3ccccc3)c3ccccc3)C2)C(C)C)CC1.O=C(O)c1ccccc1O.O=C(O)c1ccccc1O` [Example 11D], for which, in data set [2], the “% Change in Impurity A” value is 0.17%, the “% Change in Impurity B” value amounted to 0.19% and the “% Change in Purity of Salt” value came out at 0.7%.
On the same counts, the results for `COc1ccncc1CN1CCC(N(CCCCCCCN2CC[C@@H](C(C(N)=O)(c3ccccc3)c3ccccc3)C2)C(C)C)CC1.Cl.Cl` [Example 11G] are 1.16%, 0.79% and 3.6%.
`COc1ccncc1CN1CCC(N(CCCCCCCN2CC[C@@H](C(C(N)=O)(c3ccccc3)c3ccccc3)C2)C(C)C)CC1.O=C(O)C(O)C(O)C(=O)O` [Example 11B]: in data set [2], the “% Change in Impurity A” value was 0.26%, the “% Change in Impurity B” value came to 0.35% and the “% Change in Purity of Salt” value amounted to 0.8%. The “Appearance of pharmaceutical formulation upon storage (summary in words of Table III)” value in data set [3] is reported as “formed a non-flowing granular cake”.
Consider `COc1ccncc1CN1CCC(N(CCCCCCCN2CC[C@@H](C(C(N)=O)(c3ccccc3)c3ccccc3)C2)C(C)C)CC1.O=S(=O)(O)O` [Example 11A], for which, in data set [2], the “% Change in Impurity A” value is on record as less than 0.1%, the “% Change in Impurity B” value amounted to 0.11% and the “% Change in Purity of Salt” value stood at 0.8%.
As to `COc1ccncc1CN1CCC(N(CCCCCCCN2CC[C@@H](C(C(N)=O)(c3ccccc3)c3ccccc3)C2)C(C)C)CC1.CS(=O)(=O)O.CS(=O)(=O)O.CS(=O)(=O)O` [Example 10], in data set [2], the “% Change in Impurity A” value is recorded as 9.41%, the “% Change in Impurity B” value was found to be 6.59% and the “% Change in Purity of Salt” value stood at 16.4%.
On the same counts, the results for `COc1ccncc1CN1CCC(N(CCCCCCCN2CC[C@@H](C(C(N)=O)(c3ccccc3)c3ccccc3)C2)C(C)C)CC1.O=C(O)c1cc(=O)[nH]c(=O)[nH]1.O=C(O)c1cc(=O)[nH]c(=O)[nH]1` [Example 11C] are 0.45%, 0.49% and 1.1%.
On the same counts, the results for `COc1ccncc1CN1CCC(N(CCCCCCCN2CC[C@@H](C(C(N)=O)(c3ccccc3)c3ccccc3)C2)C(C)C)CC1.O=C(O)c1ccccc1O.O=C(O)c1ccccc1O.O=C(O)c1ccccc1O` [Example 11E] are 1.22%, 1.06% and 2.7%.
On the same counts, the results for `COc1ccncc1CN1CCC(N(CCCCCCCN2CC[C@@H](C(C(N)=O)(c3ccccc3)c3ccccc3)C2)C(C)C)CC1.O=C(O)c1cc(O)ccc1O.O=C(O)c1cc(O)ccc1O` [Example 11F] are 0.21%, 0.23% and 0.4%.
For `COc1ccncc1CN1CCC(N(CCCCCCCN2CC[C@@H](C(C(N)=O)(c3ccccc3)c3ccccc3)C2)C(C)C)CC1.CS(=O)(=O)O.CS(=O)(=O)O` [Example 9], in data set [2], the “% Change in Impurity A” value is listed as less than 0.1%, the “% Change in Impurity B” value is given as less than 0.1% and the “% Change in Purity of Salt” value was found to be 0.9%.
